Test results from article PMC12723664, “A high-quality chromosome-level genome assembly of the oligophagous fruit fly Bactrocera tsuneonis (Diptera: Tephritidae) and insights into its host specificity” (GigaScience, 2025).
Entries after “also recorded” stand apart in the source; their conditions may differ.

Experiments:
[1] = target: BtsuOBP83b; test: Fluorescence competitive binding assay (1-NPN probe), recombinant BtsuOBP83b; parameters: species or system Bactrocera tsuneonis; settings: for Ki: relative dissociation constant calculated from IC50, competition with 1-NPN, ligand 4–32 μmol/L, pH 7.4, read-out: Ki (μM) OBP83b
Description: (§1) Full-length sequences of BtsuOBP83a and BtsuOBP83b were amplified using specific primers (Supplementary Table S1). Purified PCR products were cloned into the pGEM-T vector (Promega) for sequencing verification. The confirmed target fragments were then subcloned into the pET-30a(+) expression vector (Sangon) using restriction enzymes (Supplementary Table S2) and T4 DNA ligase (Takara). Recombinant plasmids were transformed into Escherichia coli BL21 (DE3) competent cells (Tiangen). Bacterial cultures were grown to an OD600 of 0.6–0.8, after which protein expression was induced by adding isopropyl-β-D-thiogalactopyranoside (IPTG) (Solarbio) to a final concentration of 1 mM at different temperatures. Cells were harvested by centrifugation (5,000 × g, 15 minutes), lysed in phosphate-buffered saline buffer via sonication, and subjected to sodium dodecyl sulfate–polyacrylamide gel electrophoresis (SDS-PAGE) analysis after heat treatment. Large-scale protein expression was performed under optimized induction conditions. Soluble proteins in the supernatant were purified twice using Ni-affinity chromatography (GE Healthcare). His-tags were removed using enterokinase (Novoprotein). All purification steps were conducted at 4°C. The size and purity of OBP proteins were evaluated via SDS-PAGE, and protein concentrations were determined using the Bradford method.
(§2) The ligand-binding affinities of candidate OBPs were evaluated using fluorescence competitive binding assays performed on an F-380 Fluorescence Spectrophotometer (Tianfang), with modifications to the standard procedure. Purified OBP proteins were diluted to a final concentration of 2 μmol/L in 50 mmol/L Tris-HCl buffer (pH 7.4). The fluorescent probe N-phenyl-1-naphthylamine (1-NPN) and all candidate volatile ligands were dissolved in high-performance liquid chromatography–grade methanol at an initial concentration of 1 mmol/L. The binding constant between OBPs and 1-NPN was determined by recording emission spectra from 350 to 470 nm at an excitation wavelength of 337 nm. To establish binding saturation, titrations were conducted by sequentially adding 1-NPN to the protein solution, reaching final concentrations of 2–20 μmol/L in 2-μmol/L increments. Fluorescence intensity was measured after stabilization, and each measurement was performed in triplicate. […] Each experiment was conducted in triplicate. Dissociation constants (Ki) for the volatile ligands were calculated from the corresponding IC50 values using the following equation: […]

[2] = target: BtsuOBP83a; test: Fluorescence competitive binding assay (1-NPN probe), recombinant BtsuOBP83a; parameters: species or system Bactrocera tsuneonis; settings: for Ki: relative dissociation constant calculated from IC50, competition with 1-NPN, ligand 4–32 μmol/L, pH 7.4, read-out: Ki (μM) OBP83a; for binding to BtsuOBP83a (in words): fluorescence competitive binding assay
Description: as §1, §2

Ki [1] | Ki [2] | Structure (SMILES) | binding to BtsuOBP83a (in words) [2] | Kd ([1]; BtsuOBP83b 2 μmol/L, 50 mmol/L Tris-HCl pH 7.4, 1-NPN 2–20 μmol/L, Scatchard, read-out: dissociation constants (Kd) for 1-NPN) | Kd ([2]; BtsuOBP83a 2 μmol/L, 50 mmol/L Tris-HCl pH 7.4, 1-NPN 2–20 μmol/L, Scatchard, read-out: dissociation constants (Kd) for 1-NPN)
31.8 µM | > 50 µM | CCCCCCO [1-Hexanol] | – | – | –
33.7 µM | 40.7 µM | CCCCCC=O [Hexanal] | – | – | –
> 50 µM | > 50 µM | CCCCOC(=O)CCC [Butyl butyrate] | – | – | –
> 50 µM | > 50 µM | CCOC(=O)C(C)CC (stereo not drawn) [Ethyl 2-methylbutyrate] | – | – | –
39.1 µM | 36.4 µM | CCCCCCCCO [1-Octanol] | – | – | –
> 50 µM | 46.3 µM | CCCCC/C=C/C(=O)OCC [Ethyl trans-2-octenoate] | – | – | –
> 50 µM | > 50 µM | CCCCCCCC(=O)OCCCC [Butyl caprylate] | – | – | –
> 50 µM | > 50 µM | CCCCOC(=O)C(C)CC (stereo not drawn) [Butyl 2-methylbutyrate] | – | – | –
> 50 µM | > 50 µM | CC(C)=CCC/C(C)=C\CO [Nerol] | – | – | –
> 50 µM | > 50 µM | CCCCCC(=O)OCCC [Propyl Hexanoate] | – | – | –
> 50 µM | > 50 µM | CCCCCC(=O)OCC [Ethyl hexanoate] | – | – | –
31.8 µM | 32.1 µM | CC/C=C\CCO [cis-3-Hexen-1-ol] | – | – | –
> 50 µM | > 50 µM | CCCCCCCCOC(C)=O [Octyl acetate] | – | – | –
40.2 µM | > 50 µM | CC(C)CCO [Isopentyl alcohol] | – | – | –
28.5 µM | > 50 µM | CCC/C=C/COC(=O)CCC [trans-2-Hexenyl Butyrate] | – | – | –
> 50 µM | > 50 µM | CCCC(=O)OCCC(C)C [Isoamyl butyrate] | – | – | –

Continued, molecule first:

Structure (SMILES) | Ki [1] | Ki [2] | binding to BtsuOBP83a (in words) [2] | Kd ([1]; BtsuOBP83b 2 μmol/L, 50 mmol/L Tris-HCl pH 7.4, 1-NPN 2–20 μmol/L, Scatchard, read-out: dissociation constants (Kd) for 1-NPN) | Kd ([2]; BtsuOBP83a 2 μmol/L, 50 mmol/L Tris-HCl pH 7.4, 1-NPN 2–20 μmol/L, Scatchard, read-out: dissociation constants (Kd) for 1-NPN)
CCCCOC(=O)CC [Butyl propionate] | > 50 µM | > 50 µM | – | – | –
CCCCCCCCCCCCF [1-Fluorododecane] | > 50 µM | > 50 µM | – | – | –
C=C(C)[C@H]1CC=C(C)C(=O)C1 [d-Carvone] | > 50 µM | > 50 µM | – | – | –
C=CC(C)(O)CC/C=C(\C)CCC=C(C)C (stereo not drawn) [trans-Nerolidol] | > 50 µM | 9.36 µM | selectively binds; also recorded: binds strongly; also recorded: strong binding affinity | – | –
CCc1ccco1 [2-Ethylfuran] | > 50 µM | > 50 µM | – | – | –
CCCCC(=O)OCC [Ethyl valerate] | > 50 µM | > 50 µM | – | – | –
CC1=CCCC1 [1-Methylcyclopentene] | > 50 µM | > 50 µM | – | – | –
CC(=O)OC/C=C(/C)CCC=C(C)C [Neryl acetate] | > 50 µM | > 50 µM | – | – | –
C=Cc1ccccc1 [Styrene] | > 50 µM | > 50 µM | – | – | –
COc1cc(C)ccc1C(C)C [2-Isopropyl-5-methylanisole] | > 50 µM | > 50 µM | – | – | –
CC/C=C\CCOC(=O)CC [cis-3-Hexenyl propionate] | > 50 µM | > 50 µM | – | – | –
CCC/C=C/COC(=O)CC [trans-2-Hexenyl propionate] | > 50 µM | > 50 µM | – | – | –
CC(=O)OCCC(C)C [Isoamyl acetate] | 33.5 µM | > 50 µM | – | – | –
CC1=CCCC(C)(C)C12CCC(C)O2 (stereo not drawn) [Theaspirane] | > 50 µM | > 50 µM | – | – | –
C#Cc1cccc(N)c1 [3-Ethynylaniline] | > 50 µM | > 50 µM | – | – | –
CCc1ccccc1 [Ethylbenzene] | > 50 µM | > 50 µM | – | – | –
c1ccc(Nc2cccc3ccccc23)cc1 [1-NPN, N-phenyl-1-naphthylamine, reference compound] | – | – | – | 6.92 µM | 5.48 µM
CC(C)c1ccccc1 [Cumene] | > 50 µM | > 50 µM | – | – | –
C/C=C/C(=O)OCC [Ethyl crotonate] | > 50 µM | > 50 µM | – | – | –
CC1=CC[C@@H](C(C)(C)O)CC1 [(L)-alpha-terpineol] | > 50 µM | > 50 µM | – | – | –
CC1=CCC2CC1C2(C)C (stereo not drawn) [alpha-Pinene] | > 50 µM | 49.2 µM | – | – | –
Cc1ccc(C(C)C)cc1O [Carvacrol] | > 50 µM | > 50 µM | – | – | –
CC1=C[C@@H]2C(=C(C)CC[C@H]2C(C)C)CC1 [(+)-delta-Cadinene] | > 50 µM | > 50 µM | – | – | –
CCCC=CC=O [2-Hexenal] | 31.9 µM | 42.7 µM | – | – | –
C=C1CC/C=C(/C)CC[C@@H]2[C@@H]1CC2(C)C [Isocaryophyllene] | > 50 µM | > 50 µM | – | – | –
CCOC(C)=O [Ethylacetate] | 33 µM | > 50 µM | – | – | –
CC1=CC(=O)C(C(C)C)CC1 (stereo not drawn) [Piperitone] | > 50 µM | 17.9 µM | selectively binds; also recorded: binds strongly; also recorded: strong binding affinity | – | –
C=C1CC/C=C(\C)CC[C@@H]2[C@@H]1CC2(C)C [beta-Caryophyllene] | > 50 µM | > 50 µM | – | – | –
